In patent publication US6898533B1, “Methods for predicting the biological, chemical, and physical properties of molecules from their spectral properties” (The United States of America as represented by the …, priority 2000, dated 2005):

Legend:
[1] = test system: estrogen receptor; assay: estrogen receptor relative binding affinity, expanded training set of 107 compounds; conditions: input class, 107-compound training set
Text: The training set included weak estrogen receptor binders in addition to strong and medium estrogen receptor binders.
For this model, strong estrogen receptor binders were defined as having log(RBA)>−0.25 and weak estrogen receptor binders were defined as having log(RBA)<−3.0. Medium estrogen receptor binders were defined as having log(RBA) in between.

[2] = test system: estrogen receptor; conditions: 107-compound training set; cited from earlier work
[3] = test system: estrogen receptor; assay: estrogen receptor binding class of the 30-compound training set; conditions: SDAR training input endpoint class, 30 compounds
Text: Two Spectral Data-Activity Relationship (SDAR) models were established, based on ^13C NMR and EI MS spectra, for 30 estrogenic chemicals whose relative binding affinities (RBA) for the alpha (ERα) and beta (ERβ) estrogen receptors are available.
Strong binders to the estrogen receptor were classified as having a log (RBA) over 0.0, and medium binders to the estrogen receptor were classified as having a log (RBA) of less than or equal to 0.0.

Molecule	Class [1]	log RBA [2]	other results
CC(C)CCC[C@@H](C)[C@H]1CC[C@H]2[C@@H]3CC=C4C[C@@H](O)CC[C@]4(C)[C@H]3CC[C@]12C [Cholesterol]	W (weak estrogen receptor binders were defined as having log(RBA)<−3.0)		
CCCCCCO [Hexylalcohol]	W (weak estrogen receptor binders were defined as having log(RBA)<−3.0)		
CC(C)(C)c1cc(Cc2cc(C(C)(C)C)c(O)c(C(C)(C)C)c2)cc(C(C)(C)C)c1O [4,4′-Methylene(2,6-ditertbutylphenol)]	W (weak estrogen receptor binders were defined as having log(RBA)<−3.0)		
C#C[C@]1(O)CC[C@H]2[C@@H]3CCc4cc(OC)ccc4[C@H]3CC[C@@]21C [Mestranol]	S (strong estrogen receptor binders were defined as having log(RBA)>−0.25)		RBA [2]: 035
OCc1ccccc1 [Benzylalcohol]	W (weak estrogen receptor binders were defined as having log(RBA)<−3.0)		
CC=Cc1ccc(O)c(OC)c1 [Isoeugenol]	W (weak estrogen receptor binders were defined as having log(RBA)<−3.0)		
Clc1ccc(C(c2ccc(Cl)cc2)C(Cl)(Cl)Cl)cc1 [DDT-p,p′]	W (weak estrogen receptor binders were defined as having log(RBA)<−3.0)		
C[C@@]12CCC[C@H]1[C@@H]1CCc3cc(O)ccc3[C@H]1CC2 [Estra-1,3,5(10)-trien-3-ol]	S (strong estrogen receptor binders were defined as having log(RBA)>−0.25)	1.14	
COc1ccc([C@@H]2CC(=O)c3c(O)cc(O)cc3O2)cc1O [Hesperetin]	W (weak estrogen receptor binders were defined as having log(RBA)<−3.0)		
4,4′-Methylenebis (N,N-dimethyl)	W (weak estrogen receptor binders were defined as having log(RBA)<−3.0)		
Cc1cc(O)ccc1Cl [4-Chloro-3-methylphenol]		−3.38	
CC(C)(C)c1ccc(O)cc1 [4-tert-Butylphenol]		−3.61	
C[C@]12CC[C@@H]3c4ccc(O)cc4CC[C@H]3[C@@H]1CC[C@@H]2O [17β-Estradiol]	S (strong estrogen receptor binders were defined as having log(RBA)>−0.25)		
O=C1C=CC(=C(c2ccc(O)cc2)c2ccc(O)cc2)C=C1 [Aurin]	M (Medium estrogen receptor binders were defined as having log(RBA) in between)	−1.49	
C(=C(c1ccccc1)c1ccccc1)c1ccccc1 [Triphenylethylene]	W (weak estrogen receptor binders were defined as having log(RBA)<−3.0)	−2.78	
O=C(O)COc1cc(Cl)c(Cl)cc1Cl [2,4,5-T]	W (weak estrogen receptor binders were defined as having log(RBA)<−3.0)		
O=c1c(-c2ccc(O)cc2)coc2cc(O)cc(O)c12 [Genistein]	M (Medium estrogen receptor binders were defined as having log(RBA) in between)		Class Input [3]: S (Strong binders to the estrogen receptor were classified as having a log (RBA) over 0.0)
CC12CCC(CC1)C(C)(C)O2 [Cineole]	W (weak estrogen receptor binders were defined as having log(RBA)<−3.0)		
COc1ccc2[nH]cc(CCNC(C)=O)c2c1 [Melatonin]	W (weak estrogen receptor binders were defined as having log(RBA)<−3.0)		

Molecule	Class [1]	log RBA [2]	other results
Oc1ccc(Cc2ccc(O)cc2)cc1 [BIS (4-hydroxyphenyl)-methane]	W (weak estrogen receptor binders were defined as having log(RBA)<−3.0)	−3.02	
C(C=Cc1ccccc1)=Cc1ccccc1 [1,4-Diphenyl-1,3-butadiene]	W (weak estrogen receptor binders were defined as having log(RBA)<−3.0)		
Oc1ccc(OCc2ccccc2)cc1 [4-Benzyloxyphenol]	W (weak estrogen receptor binders were defined as having log(RBA)<−3.0)	−3.44	
CCCCOC(=O)c1ccc(N)cc1 [Butyl-4-aminobenzoate]	W (weak estrogen receptor binders were defined as having log(RBA)<−3.0)		
Oc1ccccc1Cc1ccccc1O [BIS (2-hydroxyphenyl)-methane]	W (weak estrogen receptor binders were defined as having log(RBA)<−3.0)		
O=C(O)C=Cc1ccccc1 [Cinnamic acid]	W (weak estrogen receptor binders were defined as having log(RBA)<−3.0)		
C[C@]12CC[C@@H]3c4ccc(O)cc4[C@@H](O)C[C@H]3[C@@H]1CC[C@@H]2O [Estra-1,3,5(10)-trien-3,6α,17β-triol]	S (strong estrogen receptor binders were defined as having log(RBA)>−0.25)	−0.15	
C=CCc1ccc(O)c(OC)c1 [Eugenol]	W (weak estrogen receptor binders were defined as having log(RBA)<−3.0)		
O=S(=O)(c1ccc(O)cc1)c1ccc(O)cc1 [4,4′-Sulfonylphenol]	W (weak estrogen receptor binders were defined as having log(RBA)<−3.0)	−3.07	
Clc1ccc(C(c2ccccc2Cl)C(Cl)Cl)cc1 (centres unmarked) [DDD-o,p′]	W (weak estrogen receptor binders were defined as having log(RBA)<−3.0)		
Oc1ccc(Cl)cc1Cc1cc(Cl)ccc1O [2,2′-Methylenebis (4-chlorophenol)]	M (Medium estrogen receptor binders were defined as having log(RBA) in between)	−2.45	
NCCc1ccc(O)c(O)c1 [Dopamine]	W (weak estrogen receptor binders were defined as having log(RBA)<−3.0)		
O=P(Oc1ccccc1)(Oc1ccccc1)Oc1ccccc1 [Triphenylphosphate]	W (weak estrogen receptor binders were defined as having log(RBA)<−3.0)		
O=C(c1ccc(O)cc1)c1ccc(O)cc1 [4,4′-Dihydroxybenzophenone]	M (Medium estrogen receptor binders were defined as having log(RBA) in between)	−2.46	
Oc1cccc(-c2ccccc2)c1 [3-Phenylphenol]		−3.44	
Oc1ccc(C=Cc2ccccc2)cc1 [Compound 4-Stilbenol, 4-Stilbenol]	W (weak estrogen receptor binders were defined as having log(RBA)<−3.0)		
C#C[C@]1(O)CC[C@H]2[C@@H]3CCc4cc(O)ccc4[C@H]3CC[C@@]21C [Ethynyl estradiol]	S (strong estrogen receptor binders were defined as having log(RBA)>−0.25)		
CCOC(=O)C=Cc1ccccc1 [Ethylcinnamate]	W (weak estrogen receptor binders were defined as having log(RBA)<−3.0)		
ClC(Cl)=C(c1ccc(Cl)cc1)c1ccc(Cl)cc1 [DDE-p,p′]	W (weak estrogen receptor binders were defined as having log(RBA)<−3.0)		

Molecule	Class [1]	log RBA [2]	other results
Clc1ccc(C(c2ccccc2Cl)C(Cl)(Cl)Cl)cc1 (centres unmarked) [DDT-o,p′]	W (weak estrogen receptor binders were defined as having log(RBA)<−3.0)	−2.85	
Clc1ccc(C(c2ccc(Cl)cc2)C(Cl)Cl)cc1 [DDD-p,p′]	W (weak estrogen receptor binders were defined as having log(RBA)<−3.0)		
CCC(C)(c1ccc(O)cc1)c1ccc(O)cc1 [Bisphenol B]	M (Medium estrogen receptor binders were defined as having log(RBA) in between)	−1.07	
CCCCOC(=O)c1ccccc1C(=O)OCCCC [Dibutyl phthalate]	W (weak estrogen receptor binders were defined as having log(RBA)<−3.0)		
CC/C(=C(\c1ccc(O)cc1)c1ccc(OCCN(C)C)cc1)c1ccccc1 [4-OH-Tamoxifen]	S (strong estrogen receptor binders were defined as having log(RBA)>−0.25)	2.24	
CCCCCCCCCc1ccc(O)cc1 [4-Nonylphenol]	M (Medium estrogen receptor binders were defined as having log(RBA) in between)	−1.45	
COc1ccc(C(=O)c2ccccc2O)c(O)c1 [2,2′-Dihydroxy4-methoxybenzophene]	W (weak estrogen receptor binders were defined as having log(RBA)<−3.0)		
O=c1c(-c2ccc(O)cc2)coc2cc(O)ccc12 [Daidzein]	M (Medium estrogen receptor binders were defined as having log(RBA) in between)		
CCC(C)(C)c1ccc(O)cc1 [4-tert-Amylphenol]		−3.26	
CCCCCCC=O [Heptanal]	W (weak estrogen receptor binders were defined as having log(RBA)<−3.0)		
CCOC(=O)c1ccccc1C(=O)OCC [Diethyl phthalate]	W (weak estrogen receptor binders were defined as having log(RBA)<−3.0)		
C[C@]12C[C@H](O)[C@H]3[C@@H](CCC4=CC(=O)CC[C@@]43C)[C@@H]1CC[C@@H]2C(=O)CO [Corticosterone]	W (weak estrogen receptor binders were defined as having log(RBA)<−3.0)		
CCCCC(CC)COC(=O)c1ccccc1C(=O)OCC(CC)CCCC (centres unmarked) [BIS (2-ethylhexyl) phthalate]	W (weak estrogen receptor binders were defined as having log(RBA)<−3.0)		
COc1cc(C=O)ccc1O [Vanillin]	W (weak estrogen receptor binders were defined as having log(RBA)<−3.0)		
OCCCCCCCCO [1,8-Octanediol]	W (weak estrogen receptor binders were defined as having log(RBA)<−3.0)		
CC(CCC(=O)O)(c1ccc(O)cc1)c1ccc(O)cc1 [Diphenolic acid]	W (weak estrogen receptor binders were defined as having log(RBA)<−3.0)	−3.13	
C[C@]12CCC(=O)C[C@H]1CC[C@@H]1[C@@H]2CC[C@]2(C)[C@@H](O)CC[C@@H]12 [Etiocholan-17β-ol-3-one]	W (weak estrogen receptor binders were defined as having log(RBA)<−3.0)		
O=C(c1ccccc1)c1ccc(O)cc1O [2,4-Dihydroxybenzophenone]	W (weak estrogen receptor binders were defined as having log(RBA)<−3.0)	−2.61	
Oc1ccc(-c2ccccc2)cc1 [4-Phenylphenol]		−3.04	
